In ChEMBL document CHEMBL1201862, “PubChem BioAssay data set” (2004):
Blank lines part the entries; values can stand above or below the molecule they belong to. The source made the active and inactive calls.

Key:
[1] = Luminescence Cell-Based Dose Retest to Confirm Inhibitors of Cancer Stem Cells. [Related pubchem assays (depositor defined):AID2717, AID2721]; assay type: functional; conditions: Homo sapiens
[2] = molecular target: T1, Heat shock factor protein 1 (Mus musculus, UniProt P38532); assay: HSF1 potentiators in luciferase reporter cells, confirmation, cell-based, NIH3T3, luminescence, dose retest (AID 435004); assay type: functional;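 note: stress induced by proteasome inhibitor MG132 added 30 min after compound; luciferase reporter driven by HSF1 response element in NIH3T3 cells; actives raise luminescence as potentiators of the MG132 stress response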
T1 sequence (P38532 whole entry): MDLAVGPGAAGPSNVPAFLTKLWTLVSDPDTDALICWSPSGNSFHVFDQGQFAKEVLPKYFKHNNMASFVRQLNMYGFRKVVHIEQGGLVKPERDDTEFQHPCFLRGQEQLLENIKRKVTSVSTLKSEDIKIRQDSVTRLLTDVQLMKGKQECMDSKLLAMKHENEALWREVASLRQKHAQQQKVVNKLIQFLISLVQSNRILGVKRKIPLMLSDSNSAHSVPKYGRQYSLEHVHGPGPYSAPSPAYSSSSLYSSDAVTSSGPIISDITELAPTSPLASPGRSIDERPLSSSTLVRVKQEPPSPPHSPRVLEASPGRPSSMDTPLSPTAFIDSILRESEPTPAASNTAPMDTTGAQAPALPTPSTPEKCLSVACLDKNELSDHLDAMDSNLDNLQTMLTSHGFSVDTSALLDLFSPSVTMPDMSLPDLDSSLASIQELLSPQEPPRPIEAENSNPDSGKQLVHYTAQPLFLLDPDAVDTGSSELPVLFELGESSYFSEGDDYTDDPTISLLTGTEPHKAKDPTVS

[3] = molecular target: Luciferin 4-monooxygenase (Photinus pyralis, UniProt P08659); assay: firefly luciferase enzyme inhibitors, dose response, biochemical, luminescence (AID 1891)
[4] = Luminescence Cell-Based Dose Confirmation HTS to Identify Inhibitors of Platelet Dense Granule Release. [Related pubchem assays: 1663 (Primary HTS), 1678 (Summary of Project)]; assay type: functional
Cytochrome P450 3A4 = Cytochrome P450 3A4 (Homo sapiens, UniProt P08684);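 note: CYP3A4 tested as one member of a cytochrome P450 panel screen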
Cytochrome P450 2D6 = Cytochrome P450 2D6 (Homo sapiens, UniProt P10635);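 note: CYP2D6 member of a cytochrome P450 panel assay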
Cytochrome P450 2C9 = Cytochrome P450 2C9 (Homo sapiens, UniProt P11712)
Cytochrome P450 2C19 = Cytochrome P450 2C19 (Homo sapiens, UniProt P33261); assay: Cytochrome panel assay with activity outcomes. Panel member name: p450-cyp2c19 Compounds with AC50 equal or less than 10 uM are considered active; assay type: functional; conditions: read-out: AC50
Cytochrome P450 1A2 = molecular target: T2, Cytochrome P450 1A2 (Homo sapiens, UniProt P05177);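 note: PubChem cytochrome P450 panel assay, CYP1A2 panel member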
T2 sequence (P05177 whole entry): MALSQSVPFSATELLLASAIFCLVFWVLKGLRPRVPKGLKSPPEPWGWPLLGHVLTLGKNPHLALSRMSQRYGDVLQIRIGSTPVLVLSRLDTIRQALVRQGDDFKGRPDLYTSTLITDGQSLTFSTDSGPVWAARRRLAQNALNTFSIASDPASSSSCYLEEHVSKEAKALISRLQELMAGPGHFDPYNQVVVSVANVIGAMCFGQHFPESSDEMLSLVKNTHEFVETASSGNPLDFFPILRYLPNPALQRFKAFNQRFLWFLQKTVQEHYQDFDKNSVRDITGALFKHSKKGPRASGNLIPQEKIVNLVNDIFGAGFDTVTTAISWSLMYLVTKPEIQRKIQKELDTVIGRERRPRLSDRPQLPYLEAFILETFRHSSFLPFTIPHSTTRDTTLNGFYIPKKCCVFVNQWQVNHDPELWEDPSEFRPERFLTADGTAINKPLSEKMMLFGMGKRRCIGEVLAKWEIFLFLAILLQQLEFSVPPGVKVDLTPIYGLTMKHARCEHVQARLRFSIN

[5] = molecular target: FAD-linked sulfhydryl oxidase ALR (Homo sapiens, UniProt P55789); assay: inhibitors of human ALR sulfhydryl oxidase, dose response, biochemical, H2O2 detection, luminescence, cherry-pick (AID 493248)
[6] = molecular target: T3, Corticotropin-releasing factor receptor 2/Corticotropin-releasing factor-binding protein (Homo sapiens, UniProt P24387+Q13324); assay: activators of CRF receptor 2 with binding protein – uHTS hits, confirmation (AID 602473); assay type: functional; conditions: read-out: EC50_Mean
T3 sequence (Q13324 whole entry): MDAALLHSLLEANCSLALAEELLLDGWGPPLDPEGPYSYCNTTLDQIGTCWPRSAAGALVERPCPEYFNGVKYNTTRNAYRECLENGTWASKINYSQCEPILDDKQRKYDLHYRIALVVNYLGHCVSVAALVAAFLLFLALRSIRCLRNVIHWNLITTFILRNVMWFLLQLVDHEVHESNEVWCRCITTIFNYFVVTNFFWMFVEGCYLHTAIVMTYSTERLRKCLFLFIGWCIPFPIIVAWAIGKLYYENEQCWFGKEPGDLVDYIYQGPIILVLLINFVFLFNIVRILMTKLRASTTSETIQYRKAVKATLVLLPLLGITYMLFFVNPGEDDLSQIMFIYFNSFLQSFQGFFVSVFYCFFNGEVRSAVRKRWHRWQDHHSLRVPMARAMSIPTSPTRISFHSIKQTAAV
T3 sequence (P24387 whole entry): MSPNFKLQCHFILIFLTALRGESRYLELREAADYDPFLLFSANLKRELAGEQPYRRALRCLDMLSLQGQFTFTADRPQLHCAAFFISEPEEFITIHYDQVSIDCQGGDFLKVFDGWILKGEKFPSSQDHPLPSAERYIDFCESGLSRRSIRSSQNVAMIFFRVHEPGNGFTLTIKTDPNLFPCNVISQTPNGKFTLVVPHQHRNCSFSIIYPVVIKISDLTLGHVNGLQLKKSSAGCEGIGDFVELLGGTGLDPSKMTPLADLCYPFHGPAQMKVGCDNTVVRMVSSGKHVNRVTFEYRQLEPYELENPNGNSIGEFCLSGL

Luciferin 4-monooxygenase, sequence (P08659 whole entry): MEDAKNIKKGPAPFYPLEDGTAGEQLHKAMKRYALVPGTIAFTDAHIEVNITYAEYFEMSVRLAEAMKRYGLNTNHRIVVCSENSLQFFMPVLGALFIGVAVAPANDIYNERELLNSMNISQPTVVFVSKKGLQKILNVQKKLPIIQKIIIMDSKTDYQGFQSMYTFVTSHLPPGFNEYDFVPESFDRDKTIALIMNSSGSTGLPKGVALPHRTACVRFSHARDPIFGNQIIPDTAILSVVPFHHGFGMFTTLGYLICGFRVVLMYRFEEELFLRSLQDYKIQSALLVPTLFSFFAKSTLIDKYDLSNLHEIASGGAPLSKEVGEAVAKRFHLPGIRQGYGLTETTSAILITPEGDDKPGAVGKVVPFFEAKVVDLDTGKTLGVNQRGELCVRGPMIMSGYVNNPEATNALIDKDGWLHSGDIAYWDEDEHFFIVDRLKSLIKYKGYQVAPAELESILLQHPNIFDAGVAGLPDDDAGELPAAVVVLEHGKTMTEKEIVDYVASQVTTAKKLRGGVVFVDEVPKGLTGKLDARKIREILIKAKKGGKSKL
Cytochrome P450 3A4, sequence (P08684 whole entry): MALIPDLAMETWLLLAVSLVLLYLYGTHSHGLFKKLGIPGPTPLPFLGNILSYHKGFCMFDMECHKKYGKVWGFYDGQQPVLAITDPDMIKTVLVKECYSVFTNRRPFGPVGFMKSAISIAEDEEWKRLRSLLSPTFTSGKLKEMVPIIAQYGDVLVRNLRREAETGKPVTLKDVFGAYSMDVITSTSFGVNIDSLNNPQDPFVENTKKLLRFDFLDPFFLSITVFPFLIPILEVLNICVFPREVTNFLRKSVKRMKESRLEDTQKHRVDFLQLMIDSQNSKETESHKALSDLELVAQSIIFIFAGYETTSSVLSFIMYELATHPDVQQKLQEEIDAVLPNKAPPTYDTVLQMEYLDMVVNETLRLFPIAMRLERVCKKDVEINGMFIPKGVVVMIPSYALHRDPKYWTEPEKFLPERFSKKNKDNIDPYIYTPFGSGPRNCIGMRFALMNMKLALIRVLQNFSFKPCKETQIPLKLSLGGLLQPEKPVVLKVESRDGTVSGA
FAD-linked sulfhydryl oxidase ALR, sequence (P55789 whole entry): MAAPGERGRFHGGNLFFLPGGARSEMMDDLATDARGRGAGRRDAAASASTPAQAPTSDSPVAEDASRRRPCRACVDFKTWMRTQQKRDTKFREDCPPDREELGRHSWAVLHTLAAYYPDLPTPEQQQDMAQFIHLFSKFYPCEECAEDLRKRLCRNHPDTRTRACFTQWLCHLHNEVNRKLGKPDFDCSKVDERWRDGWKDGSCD
Cytochrome P450 2D6, sequence (P10635 whole entry): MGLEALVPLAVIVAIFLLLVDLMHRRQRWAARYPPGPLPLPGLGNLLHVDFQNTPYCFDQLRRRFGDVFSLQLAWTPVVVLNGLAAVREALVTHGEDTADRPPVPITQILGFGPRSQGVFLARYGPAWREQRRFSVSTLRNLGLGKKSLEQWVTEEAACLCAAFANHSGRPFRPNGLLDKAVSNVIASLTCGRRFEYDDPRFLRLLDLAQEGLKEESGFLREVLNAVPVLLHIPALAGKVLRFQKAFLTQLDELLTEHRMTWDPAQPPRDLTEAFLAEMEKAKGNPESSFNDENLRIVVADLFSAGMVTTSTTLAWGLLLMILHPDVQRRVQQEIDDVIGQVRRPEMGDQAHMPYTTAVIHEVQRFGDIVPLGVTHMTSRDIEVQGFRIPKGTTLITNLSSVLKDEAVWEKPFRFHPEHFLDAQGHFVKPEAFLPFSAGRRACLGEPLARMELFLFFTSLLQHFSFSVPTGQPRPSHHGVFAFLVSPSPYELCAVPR
Cytochrome P450 2C19, sequence (P33261 whole entry): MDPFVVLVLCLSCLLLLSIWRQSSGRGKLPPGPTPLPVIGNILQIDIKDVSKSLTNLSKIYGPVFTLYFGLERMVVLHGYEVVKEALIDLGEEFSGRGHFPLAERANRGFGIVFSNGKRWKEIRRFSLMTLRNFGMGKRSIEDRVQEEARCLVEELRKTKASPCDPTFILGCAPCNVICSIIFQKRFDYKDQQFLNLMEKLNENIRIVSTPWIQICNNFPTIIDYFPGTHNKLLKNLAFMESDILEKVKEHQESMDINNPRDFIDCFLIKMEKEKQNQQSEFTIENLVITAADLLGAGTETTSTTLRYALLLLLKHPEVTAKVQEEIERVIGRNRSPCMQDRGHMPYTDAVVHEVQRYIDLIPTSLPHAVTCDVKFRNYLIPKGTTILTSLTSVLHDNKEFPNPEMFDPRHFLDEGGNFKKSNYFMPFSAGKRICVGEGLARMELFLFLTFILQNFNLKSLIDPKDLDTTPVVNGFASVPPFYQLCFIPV
Cytochrome P450 2C9, sequence (P11712 whole entry): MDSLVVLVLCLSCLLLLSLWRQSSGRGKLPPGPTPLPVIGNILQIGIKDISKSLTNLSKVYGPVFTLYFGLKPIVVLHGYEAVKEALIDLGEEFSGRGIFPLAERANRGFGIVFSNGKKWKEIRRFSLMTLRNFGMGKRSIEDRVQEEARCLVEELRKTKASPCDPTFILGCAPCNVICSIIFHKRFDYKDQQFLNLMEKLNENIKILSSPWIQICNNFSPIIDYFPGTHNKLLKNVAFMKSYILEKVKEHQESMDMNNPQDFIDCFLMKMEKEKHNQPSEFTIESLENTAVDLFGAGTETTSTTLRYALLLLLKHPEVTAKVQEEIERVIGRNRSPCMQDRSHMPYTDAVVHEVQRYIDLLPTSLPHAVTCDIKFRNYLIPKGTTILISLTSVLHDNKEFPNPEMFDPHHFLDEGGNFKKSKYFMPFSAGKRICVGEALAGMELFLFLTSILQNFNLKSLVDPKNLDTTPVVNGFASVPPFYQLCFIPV

SMILES: CCOC(=O)c1c(C)nc2c(c1-c1ccc(Cl)cc1)C(=O)CC(C)(C)C2
AC50 [1]: 12.2 µM (active)

SMILES: CCOc1ccc(CN(CCO)CCO)cc1C(=O)OC
EC50 [3]: > 112 µM (not active)
EC50 [4]: > 112 µM (not active)

SMILES: CCc1cc2c(nc1CC)CCN(CC/C(C)=N/OC)C2
AC50 (Cytochrome P450 3A4): 3.16 µM (inconclusive)
AC50 (Cytochrome P450 2D6): 3.16 µM (inconclusive)

SMILES: O=S(=O)(Nc1ccc(-c2ccc3nncn3n2)cc1)c1cc(F)ccc1F
EC50 [3]: > 112 µM (not active)
EC50 [4]: > 112 µM (not active)

SMILES: Cc1ccc(Cl)cc1NC(=O)c1cc(S(=O)(=O)N2CCOCC2)cn1C
EC50 [3]: > 112 µM (not active)
EC50 [4]: > 112 µM (not active)

SMILES: CCOC(=O)C(C)n1cnc2c(nnn2-c2ccc(F)cc2)c1=O (configuration not stated)
EC50 [3]: > 112 µM (not active)
EC50 [4]: > 112 µM (not active)

SMILES: Cc1cccc(C)c1NS(=O)(=O)c1ccc(NC(=O)c2ccc(Cl)c([N+](=O)[O-])c2)cc1
AC50 [1]: 1.46 µM (active)

SMILES: c1ccc2c(C3=NN=C(NC4CC4)SC3)c[nH]c2c1
EC50 [3]: > 112 µM (not active)
EC50 [2]: > 260 µM (inactive)
EC50 [4]: 20.2 µM (active)

SMILES: O=C(Nc1nccs1)c1ccc(COc2ccccc2Cl)o1
AC50 [1]: 2.45 µM (active)

SMILES: COc1ccccc1Nc1nc(NCc2ccco2)c2ccccc2n1
EC50 [3]: > 112 µM (not active)
EC50 [4]: > 112 µM (not active)

SMILES: O=C1CC(c2ccc(F)cc2)CC2=Nc3ccccc3NC=C12 (configuration not stated)
AC50 [1]: 3.58 µM (active)

Results, then the molecule that gave them:

EC50 [2]: > 260 µM (inactive)
SMILES: CCOC(=O)c1cc(NC(=O)COc2ccc([N+](=O)[O-])cc2)cc(C(=O)OCC)c1

EC50 [2]: > 260 µM (inactive)
SMILES: Cc1ccc(S(=O)(=O)N2CCN(C(=O)CSc3ccc(Cl)cc3)CC2)cc1

EC50 [2]: > 260 µM (inactive)
SMILES: CC(C)(Oc1ccc(Cl)cc1)C(=O)Nc1ccc2oc(-c3ccncc3)nc2c1

EC50 [2]: > 260 µM (inactive)
SMILES: O=C(Nc1ccc(O)c(-c2nc3ccccc3o2)c1)C1(c2ccc(Cl)cc2)CCCC1

EC50 [2]: > 260 µM (inactive)
AC50 (Cytochrome P450 2C9): 0.562 µM (active)
AC50 (Cytochrome P450 2C19): 1.41 µM (active)
AC50 (Cytochrome P450 2D6): 1.12 µM (active)
AC50 (Cytochrome P450 1A2): 0.562 µM (active)
SMILES: COc1ccc(-c2cc(CCCC(=O)NCCc3ccc(OC)cc3OC)no2)cc1

AC50 (Cytochrome P450 3A4): 35.5 µM (inconclusive)
AC50 (Cytochrome P450 1A2): 10 µM (inconclusive)
SMILES: CCCn1c(=N)n(CC(=O)c2ccco2)c2ccccc21

EC50 [2]: > 260 µM (inactive)
SMILES: CCc1cc(C(=O)c2ccc(OC)cc2)c(N)s1

AC50 [5]: 1.3 µM (active)
SMILES: Cc1cc(O)nc2c(C)cc(S(=O)(=O)Nc3ccc(O)cc3)cc12

EC50 [2]: 98.6 µM (active)
SMILES: CC(C)[C@H](NC(=O)OC(C)(C)C)c1nnc(SCC(=O)Nc2ccc(Br)cc2)o1

EC50 [6]: > 53 µM (inactive)
SMILES: O=S(=O)(NC1CCCC1)c1ccc(S(=O)(=O)NC2CCCC2)cc1

AC50 [5]: 1.2 µM (active)
SMILES: CCc1ccc(NC(=O)CN2C(=O)CSC2=O)cc1

AC50 [5]: 0.488 µM (active)
SMILES: NC(=NO)c1cn(Cc2ccccc2Cl)c2ccccc12

AC50 (Cytochrome P450 3A4): 20 µM (inconclusive)
SMILES: N#Cc1cccc(NC(=O)N2CC[C@@]3(CCCN(C(=O)c4ccco4)C3)C2)c1
